Experimental data published in US9232796B2, “Herbicidal compositions comprising 4-amino-3-chloro-5-fluoro-6-(4-chloro-2-fluoro-3-methoxyphenyl) pyridine-2-carboxylic acid or a derivative thereof and acetyl-CoA carboxylase (ACCase) inhibitors” (DOW AGROSCIENCES LLC, priority 2012, dated 2016).

Key:
CYPDI = assay: Example V post-emergence field trials in direct-seeded rice; format: in vivo, Cyperus difformis; settings: foliar, field trial Greece
Protocol: (§1) Multiple field trials were conducted under commercial grower field conditions in Tolima, Colombia; Thessaloniki, Greece; Bianze and Copiano, Italy; and Humphrey, Ark., USA. Trials sites were located in commercially grown fields of direct-seeded rice (Oryza sativa) using standard herbicide small plot research methodology. Plots varied from 2 to 3 meter (m)×5 to 8 m (width×length) with 4 replicates per treatment. The rice crop was grown using normal cultural practices for fertilization, seeding, watering, flooding and maintenance to ensure good growth of the crop and the weeds.
(§2) All treatments in the field trials were applied using a backpack compressed air/gas sprayer with flat fan nozzles (80° or 110°) calibrated to apply 187 to 300 L/ha spray volume at approximately 200-400 kPa nozzle pressure. Commercially available products of cyhalofop-butyl (Clincher 180EC, Clincher 200EC, and Clincher SF (285 gr ai/L EC)) were mixed in water at appropriate formulated product rates to achieve the desired rates based on a unit area of application (hectare) to achieve the desired rates as shown. Treatments were rate at 19 to 58 days after application (DAA) as compared to the untreated control plants. Visual weed control was scored on a scale of 0 to 100 percent where 0 corresponds to no injury and 100 corresponds to complete kill. […]

FIMMI [1] = assay: as above; format: in vivo, Fimbristylis miliacea; settings: foliar, field trial Tolima, Colombia
Protocol: as §1, §2

FIMMI [2] = assay: Example II in-water applied, greenhouse, transplanted paddy rice weeds; format: in vivo, Fimbristylis miliacea (L.) Vahl
Protocol: Weed seeds or nutlets of the desired test plant species were planted in puddled soil (mud) prepared by mixing a shredded, non-sterilized mineral soil (50.5 percent silt, 25.5 percent clay, and 24 percent sand, with a pH of about 7.6 and an organic matter content of about 2.9 percent) and water at a 1:1 volumetric ratio. The prepared mud was dispensed in 365 mL aliquots into 16-ounce (oz.) non-perforated plastic pots with a surface area of 86.59 square centimeters (cm^2) leaving a headspace of 3 centimeters (cm) in each pot. Mud was allowed to dry overnight prior to planting or transplanting. Rice seeds were planted in Sun Gro MetroMix® 306 planting mixture, which typically has a pH of 6.0 to 6.8 and an organic matter content of about 30 percent, in plastic plug trays. Seedlings at the second or third leaf stage of growth were transplanted into 860 mL of mud contained in 32-oz. non-perforated plastic pots with a surface area of 86.59 cm^2 4 days prior to herbicide application. The paddy was created by filling the headspace of the pots with 2.5 to 3 cm of water. […] The plants were grown for 4-22 days in a greenhouse with an approximate 14 hr. photoperiod which was maintained at about 29° C. during the day and 26° C. during the night. Nutrients were added as Osmocote® (19:6:12, N:P:K+minor nutrients) at 2 g per 16-oz. pot and 4 g per 32-oz. pot. Water was added on a regular basis to maintain the paddy flood, and supplemental lighting was provided with overhead metal halide 1000-Watt lamps as necessary. The plants were employed for testing when they reached the first through fourth true leaf stage.
Treatments consisted of the acid or esters of 4-amino-3-chloro-5-fluoro-6-(4-chloro-2-fluoro-3-methoxy-phenyl)pyridine-2-carboxylic acid (compound A) each formulated as an SC (suspension concentrate) and various herbicidal components alone and in combination.
For formulated compounds, a measured amount was placed in an individual 100 or 200 mL glass vial and was dissolved in a volume of 1.25% (v/v) Agri-Dex® crop oil concentrate to obtain application solutions.
Applications were made by injecting with a pipetter appropriate amounts of the application solutions, individually and sequentially, into the aqueous layer of the paddy. Control plants were treated in the same manner with the solvent blank. Applications were made so that all treated plant material received the same concentrations of acetone and crop oil concentrate.
The treated plants and control plants were placed in a greenhouse as described above and water was added as needed to maintain a paddy flood. After approximately 3 weeks the condition of the test plants as compared with that of the untreated plants was determined visually and scored on a scale of 0 to 100 percent where 0 corresponds to no injury or growth inhibition and 100 corresponds to complete kill.
Colby's equation was used to determine the herbicidal effects expected from the mixtures (Colby, S. R. 1967. Calculation of the synergistic and antagonistic response of herbicide combinations. Weeds 15:20-22.).
The following equation was used to calculate the expected activity of mixtures containing two active ingredients, A and B: Expected=A+B−(A×B/100)

COc1c(Cl)ccc(-c2nc(C(=O)OCc3ccccc3)c(Cl)c(N)c2F)c1F [Compound A Benzyl Ester, benzyl ester of 4-amino-3-chloro-5-fluoro-6-(4-chloro-2-fluoro-3-methoxy-phenyl)pyridine-2-carboxylic acid] was tested, and the “Visual Weed Control (%) - 55-58 DAA CYPDI Obs” value (CYPDI; 24 gae/ha) was 81% and the “Visual Weed Control (%) - 19 DAA FIMMI Obs” value (FIMMI [1]; 24 gae/ha) was 39%.

In the case of C[C@@H](Oc1ccc(Oc2nc3ccc(Cl)cc3o2)cc1)C(=O)N(C)c1ccccc1F [Metamifop, (2R)-2-[4-[(6-chloro-2-benzoxazolyl)oxy]phenoxy]-N-(2-fluorophenyl)-N-methylpropanamide], the “Visual Weed Control (%) - 21 DAA FIMMI Obs” value (FIMMI [2]; 75 gai/ha) is reported as 0% and the “Visual Weed Control (%) - 21 DAA FIMMI Obs” value (FIMMI [2]; 150 gai/ha) is reported as 0%.

In the case of COc1c(Cl)ccc(-c2nc(C(=O)O)c(Cl)c(N)c2F)c1F [Compound A Acid, 4-amino-3-chloro-6-(4-chloro-2-fluoro-3-methoxyphenyl)-5-fluoropyridine-2-carboxylic acid], the “Visual Weed Control (%) - 21 DAA FIMMI Obs” value (FIMMI [2]; 8.75 gae/ha) is reported as 20% and the “Visual Weed Control (%) - 21 DAA FIMMI Obs” value (FIMMI [2]; 35 gae/ha) is reported as 85%.

In the case of CCCCOC(=O)[C@@H](C)Oc1ccc(Oc2ccc(C#N)cc2F)cc1 [Cyhalofop-butyl, butyl(2R)-2-[4-(4-cyano-2-fluorophenoxy)phenoxy]propanoate, reference compound], the “Visual Weed Control (%) - 55-58 DAA CYPDI Obs” value (CYPDI; 300 gai/ha) is reported as 0% and the “Visual Weed Control (%) - 19 DAA FIMMI Obs” value (FIMMI [1]; 190 gai/ha) is reported as 16%.
